Experimental findings from ChEMBL document CHEMBL3600363, “Discovery of potent, selective small molecule inhibitors of α-subtype of type III phosphatidylinositol-4-kinase (PI4KIIIα)” (Bioorg Med Chem Lett, 2015) are described below.

For assay [1], the target named is T1, Phosphatidylinositol 4,5-bisphosphate 3-kinase catalytic subunit delta isoform (Homo sapiens, UniProt O00329).
T1 sequence (O00329 whole entry): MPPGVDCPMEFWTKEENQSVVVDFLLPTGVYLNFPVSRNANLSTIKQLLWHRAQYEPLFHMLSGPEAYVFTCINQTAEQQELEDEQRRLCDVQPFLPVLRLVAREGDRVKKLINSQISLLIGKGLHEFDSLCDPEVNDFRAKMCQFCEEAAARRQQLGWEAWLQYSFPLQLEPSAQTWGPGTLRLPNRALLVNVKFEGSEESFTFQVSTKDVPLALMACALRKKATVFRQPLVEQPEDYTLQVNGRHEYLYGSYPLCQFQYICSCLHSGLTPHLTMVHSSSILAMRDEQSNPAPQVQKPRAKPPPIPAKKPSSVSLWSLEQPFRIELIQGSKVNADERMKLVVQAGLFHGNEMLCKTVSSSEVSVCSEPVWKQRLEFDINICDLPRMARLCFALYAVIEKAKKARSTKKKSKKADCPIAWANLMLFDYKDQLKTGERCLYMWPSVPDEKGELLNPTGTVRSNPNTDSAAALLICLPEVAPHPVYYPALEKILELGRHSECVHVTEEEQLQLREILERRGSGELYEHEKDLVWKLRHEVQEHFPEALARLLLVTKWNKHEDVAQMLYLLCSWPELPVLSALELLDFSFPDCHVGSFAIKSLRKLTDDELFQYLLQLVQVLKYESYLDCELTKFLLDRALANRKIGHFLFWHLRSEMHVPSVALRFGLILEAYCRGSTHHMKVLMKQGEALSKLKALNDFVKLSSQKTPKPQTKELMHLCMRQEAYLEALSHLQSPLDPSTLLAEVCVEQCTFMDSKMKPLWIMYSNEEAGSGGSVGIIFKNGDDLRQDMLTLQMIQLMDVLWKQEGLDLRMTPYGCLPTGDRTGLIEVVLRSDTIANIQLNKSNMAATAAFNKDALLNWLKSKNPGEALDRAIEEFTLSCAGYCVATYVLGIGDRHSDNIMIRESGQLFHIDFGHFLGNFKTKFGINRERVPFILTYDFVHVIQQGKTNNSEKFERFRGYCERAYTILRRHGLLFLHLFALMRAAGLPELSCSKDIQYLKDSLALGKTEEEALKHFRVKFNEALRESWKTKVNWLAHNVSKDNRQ
The experiment in a line: Inhibition of PI3Kdelta (unknown origin) pre-incubated for 20 mins before phosphatidylinositol 4, 5-bisphosphate substrate addition by kinase-glo plus luminescence assay. (In general: Kinase-Glo measures the ATP left after a reaction by luminescence.)

In assay [2] the target is Phosphatidylinositol 4-phosphate 5-kinase type-1 gamma (Homo sapiens, UniProt O60331). The experiment in a line: Inhibition of PIP5K1C (unknown origin) using D-myo-phosphatidylinositol 4-phosphate substrate and ATP by ADP-Glo kinase Assay. A general note: ADP-Glo first removes unused ATP, then detects ADP through luciferase.
Assay [3] concerns the target Phosphatidylinositol 4,5-bisphosphate 3-kinase catalytic subunit gamma isoform (Homo sapiens, UniProt P48736). The experiment in a line: Inhibition of PI3Kgamma (unknown origin) pre-incubated for 20 mins before phosphatidylinositol 4, 5-bisphosphate substrate addition by kinase-glo plus luminescence assay.
Assay [4] addresses Phosphatidylinositol 4-kinase beta (Homo sapiens, UniProt Q9UBF8). Put plainly: Inhibition of N-terminal GST-tagged human full length recombinant PI4K3beta expressed in Sf9 cells using D-myo-phosphatidylinositol substrate and ATP incubated for 45 mins by ADP-Glo kinase Assay.
Assay [5] deals with Phosphatidylinositol 4-kinase alpha (Homo sapiens, UniProt P42356). The experiment in a line: Inhibition of N-terminal FLAG-tagged human full length recombinant PI4K3alpha using D-myo-phosphatidylinositol substrate and ATP incubated for 45 mins by ADP-Glo kinase Assay.
The target of assay [6] is Phosphatidylinositol 4,5-bisphosphate 3-kinase catalytic subunit beta isoform (Homo sapiens, UniProt P42338). Put plainly: Inhibition of PI3Kbeta (unknown origin) pre-incubated for 20 mins before phosphatidylinositol 4, 5-bisphosphate substrate addition by kinase-glo plus luminescence assay.
In assay [7] the target is Phosphatidylinositol 4,5-bisphosphate 3-kinase catalytic subunit alpha isoform (Homo sapiens, UniProt P42336). Put plainly: Inhibition of PI3Kalpha (unknown origin) pre-incubated for 20 mins before phosphatidylinositol 4, 5-bisphosphate substrate addition by kinase-glo plus luminescence assay.

By IC50 is commonly meant the concentration that inhibits the measured activity by half.

Sequence of Phosphatidylinositol 4-kinase beta (Q9UBF8 whole entry): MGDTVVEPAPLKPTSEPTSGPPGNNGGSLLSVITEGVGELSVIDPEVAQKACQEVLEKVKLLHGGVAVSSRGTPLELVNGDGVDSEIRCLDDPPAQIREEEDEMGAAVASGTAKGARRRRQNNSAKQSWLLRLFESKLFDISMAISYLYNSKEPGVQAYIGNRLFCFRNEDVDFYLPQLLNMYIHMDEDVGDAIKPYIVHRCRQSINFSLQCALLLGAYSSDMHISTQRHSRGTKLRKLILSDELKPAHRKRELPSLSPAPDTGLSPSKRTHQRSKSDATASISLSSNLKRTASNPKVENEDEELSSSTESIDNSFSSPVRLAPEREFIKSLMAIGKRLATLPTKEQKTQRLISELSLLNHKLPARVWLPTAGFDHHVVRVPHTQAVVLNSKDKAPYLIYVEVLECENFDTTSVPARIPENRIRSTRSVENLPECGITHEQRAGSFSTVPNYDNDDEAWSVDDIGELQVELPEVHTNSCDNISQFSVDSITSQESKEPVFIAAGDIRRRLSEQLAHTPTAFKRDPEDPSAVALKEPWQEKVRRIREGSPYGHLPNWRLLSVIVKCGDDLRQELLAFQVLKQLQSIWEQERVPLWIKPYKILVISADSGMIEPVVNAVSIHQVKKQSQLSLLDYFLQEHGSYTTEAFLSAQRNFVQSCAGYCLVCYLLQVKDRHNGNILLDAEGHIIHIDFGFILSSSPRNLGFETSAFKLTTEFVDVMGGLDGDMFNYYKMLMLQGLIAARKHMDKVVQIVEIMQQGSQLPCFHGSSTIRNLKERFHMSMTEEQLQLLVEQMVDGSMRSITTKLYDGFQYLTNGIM
Sequence of Phosphatidylinositol 4,5-bisphosphate 3-kinase catalytic subunit gamma isoform (P48736 whole entry, canonical isoform): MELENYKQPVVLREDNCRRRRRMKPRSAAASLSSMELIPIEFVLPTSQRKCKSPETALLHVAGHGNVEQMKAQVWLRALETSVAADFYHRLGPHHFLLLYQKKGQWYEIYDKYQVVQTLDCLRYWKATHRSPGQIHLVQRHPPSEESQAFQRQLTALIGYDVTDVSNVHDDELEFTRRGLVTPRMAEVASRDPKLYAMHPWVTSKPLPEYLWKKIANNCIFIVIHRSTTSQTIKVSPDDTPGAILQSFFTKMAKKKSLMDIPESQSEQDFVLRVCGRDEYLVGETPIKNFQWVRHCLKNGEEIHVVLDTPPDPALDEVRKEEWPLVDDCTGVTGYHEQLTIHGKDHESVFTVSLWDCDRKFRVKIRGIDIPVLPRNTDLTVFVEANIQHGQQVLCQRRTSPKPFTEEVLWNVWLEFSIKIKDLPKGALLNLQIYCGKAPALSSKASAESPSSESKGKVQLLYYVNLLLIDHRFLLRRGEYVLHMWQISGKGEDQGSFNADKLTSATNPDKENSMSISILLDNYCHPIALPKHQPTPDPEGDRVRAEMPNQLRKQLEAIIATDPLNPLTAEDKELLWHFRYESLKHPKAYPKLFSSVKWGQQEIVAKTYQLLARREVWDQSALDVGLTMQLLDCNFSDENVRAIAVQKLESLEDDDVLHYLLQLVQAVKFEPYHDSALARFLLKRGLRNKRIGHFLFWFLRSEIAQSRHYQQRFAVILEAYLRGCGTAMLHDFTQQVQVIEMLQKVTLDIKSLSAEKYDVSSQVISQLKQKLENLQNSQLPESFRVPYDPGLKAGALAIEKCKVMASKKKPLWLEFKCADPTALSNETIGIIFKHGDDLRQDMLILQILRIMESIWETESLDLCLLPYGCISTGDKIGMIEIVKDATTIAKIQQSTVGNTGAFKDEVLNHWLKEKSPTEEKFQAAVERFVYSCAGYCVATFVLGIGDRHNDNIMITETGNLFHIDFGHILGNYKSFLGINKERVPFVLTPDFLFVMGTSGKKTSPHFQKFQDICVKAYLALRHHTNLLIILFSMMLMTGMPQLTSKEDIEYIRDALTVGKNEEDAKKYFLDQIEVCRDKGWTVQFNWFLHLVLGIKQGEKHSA
Sequence of Phosphatidylinositol 4-kinase alpha (P42356 whole entry, canonical isoform): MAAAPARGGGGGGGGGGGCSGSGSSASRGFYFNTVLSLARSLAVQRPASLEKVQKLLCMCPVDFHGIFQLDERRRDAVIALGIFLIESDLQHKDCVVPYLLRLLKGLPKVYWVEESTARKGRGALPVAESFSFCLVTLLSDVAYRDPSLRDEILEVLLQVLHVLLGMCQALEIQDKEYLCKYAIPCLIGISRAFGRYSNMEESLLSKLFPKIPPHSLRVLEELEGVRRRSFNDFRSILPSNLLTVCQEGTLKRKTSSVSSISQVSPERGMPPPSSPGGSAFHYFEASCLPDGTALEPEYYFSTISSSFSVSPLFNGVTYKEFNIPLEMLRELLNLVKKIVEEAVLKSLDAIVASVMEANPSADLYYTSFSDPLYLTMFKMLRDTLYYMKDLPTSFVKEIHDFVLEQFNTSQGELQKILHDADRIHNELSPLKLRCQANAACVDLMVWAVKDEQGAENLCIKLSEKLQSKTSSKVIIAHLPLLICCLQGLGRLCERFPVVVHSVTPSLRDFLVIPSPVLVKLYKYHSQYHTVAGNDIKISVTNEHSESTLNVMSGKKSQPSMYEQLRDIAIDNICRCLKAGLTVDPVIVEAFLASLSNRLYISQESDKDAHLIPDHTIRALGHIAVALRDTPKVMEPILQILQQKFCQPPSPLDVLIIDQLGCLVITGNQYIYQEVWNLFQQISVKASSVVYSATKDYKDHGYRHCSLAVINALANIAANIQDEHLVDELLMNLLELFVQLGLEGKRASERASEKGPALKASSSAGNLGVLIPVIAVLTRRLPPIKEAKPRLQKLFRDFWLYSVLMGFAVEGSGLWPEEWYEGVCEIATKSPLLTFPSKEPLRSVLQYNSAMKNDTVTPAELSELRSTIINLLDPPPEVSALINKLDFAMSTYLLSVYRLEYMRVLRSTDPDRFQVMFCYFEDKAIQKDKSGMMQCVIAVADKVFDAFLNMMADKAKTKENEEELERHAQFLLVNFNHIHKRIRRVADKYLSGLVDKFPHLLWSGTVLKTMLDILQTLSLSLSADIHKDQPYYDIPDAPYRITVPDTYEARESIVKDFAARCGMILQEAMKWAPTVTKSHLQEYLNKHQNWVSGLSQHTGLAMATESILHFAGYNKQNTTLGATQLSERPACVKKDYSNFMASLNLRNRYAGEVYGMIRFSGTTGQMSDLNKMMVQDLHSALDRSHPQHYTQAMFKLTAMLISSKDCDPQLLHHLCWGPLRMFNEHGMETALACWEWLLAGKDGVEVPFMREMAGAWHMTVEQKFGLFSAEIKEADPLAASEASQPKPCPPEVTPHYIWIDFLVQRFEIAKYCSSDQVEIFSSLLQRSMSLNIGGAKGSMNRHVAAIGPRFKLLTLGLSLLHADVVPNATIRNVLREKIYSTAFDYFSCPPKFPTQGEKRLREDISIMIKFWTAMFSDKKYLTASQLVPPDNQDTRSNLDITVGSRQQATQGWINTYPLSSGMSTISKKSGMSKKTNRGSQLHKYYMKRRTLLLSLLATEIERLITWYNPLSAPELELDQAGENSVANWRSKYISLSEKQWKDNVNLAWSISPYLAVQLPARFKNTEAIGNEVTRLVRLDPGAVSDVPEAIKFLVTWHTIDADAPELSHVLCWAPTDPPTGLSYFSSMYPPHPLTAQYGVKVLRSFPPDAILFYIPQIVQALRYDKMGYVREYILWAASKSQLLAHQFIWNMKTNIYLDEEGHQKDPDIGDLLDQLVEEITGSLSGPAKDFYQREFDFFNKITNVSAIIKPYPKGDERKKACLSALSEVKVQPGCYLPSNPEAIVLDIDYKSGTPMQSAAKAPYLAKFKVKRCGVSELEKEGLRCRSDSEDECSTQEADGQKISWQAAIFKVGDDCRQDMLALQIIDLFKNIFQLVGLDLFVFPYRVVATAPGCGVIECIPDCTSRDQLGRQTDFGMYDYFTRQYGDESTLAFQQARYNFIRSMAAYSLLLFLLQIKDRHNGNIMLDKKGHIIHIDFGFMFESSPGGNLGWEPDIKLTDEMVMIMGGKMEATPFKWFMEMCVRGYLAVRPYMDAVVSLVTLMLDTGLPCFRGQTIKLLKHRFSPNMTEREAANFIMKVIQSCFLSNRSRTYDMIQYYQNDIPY
Sequence of Phosphatidylinositol 4-phosphate 5-kinase type-1 gamma (O60331 whole entry, canonical isoform): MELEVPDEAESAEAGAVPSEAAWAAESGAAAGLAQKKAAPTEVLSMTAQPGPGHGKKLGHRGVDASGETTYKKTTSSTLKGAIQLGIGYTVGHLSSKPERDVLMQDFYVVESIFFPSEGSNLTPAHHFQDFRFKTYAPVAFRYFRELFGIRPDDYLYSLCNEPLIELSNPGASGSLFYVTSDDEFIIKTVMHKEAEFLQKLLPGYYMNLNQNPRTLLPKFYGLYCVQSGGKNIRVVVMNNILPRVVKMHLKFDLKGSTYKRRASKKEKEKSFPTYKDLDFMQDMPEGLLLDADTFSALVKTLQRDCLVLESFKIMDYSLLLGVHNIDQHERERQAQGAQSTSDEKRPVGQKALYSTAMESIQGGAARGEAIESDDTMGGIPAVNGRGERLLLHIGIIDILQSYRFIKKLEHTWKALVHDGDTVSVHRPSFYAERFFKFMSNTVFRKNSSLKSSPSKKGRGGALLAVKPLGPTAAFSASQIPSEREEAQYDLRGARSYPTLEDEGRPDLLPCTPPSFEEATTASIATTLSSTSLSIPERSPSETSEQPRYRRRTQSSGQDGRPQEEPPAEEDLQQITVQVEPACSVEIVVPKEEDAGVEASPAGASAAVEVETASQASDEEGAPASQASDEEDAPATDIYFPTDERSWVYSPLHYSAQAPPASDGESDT

In the case of `COc1ccc(-c2ccc3nc(N)sc3c2)cn1`, the IC50 is 0.794 µM in assay [1]; 25.1 µM in assay [2]; 0.398 µM in assay [3]; 1 µM in assay [4]; 0.631 µM in assay [5].

Consider `Nc1nc2ccc(-c3ccncc3)cc2s1`, for which the IC50 in assay [4] is 1 µM; in assay [5] it was 2.51 µM.

On to `COCc1ccc(-c2ccc3nc(N)sc3c2)cn1`, for which the IC50 was 6.31 µM in assay [1]; > 100 µM in assay [2]; 15.8 µM in assay [6]; 0.316 µM in assay [4]; 2.51 µM in assay [7]; 1 µM in assay [5].

With `Nc1nc2ccc(-c3ccc(CO)nc3)cc2s1`, the IC50 in assay [2] was > 100 µM; in assay [4], 0.794 µM; in assay [7] it was 3.16 µM; in assay [5], 1.58 µM.

With `CNC(=O)c1ccc(-c2ccc3nc(N)sc3c2)cn1`, the half-inhibitory concentration (IC50) was 31.6 µM in assay [2], 2.51 µM in assay [4], 2 µM in assay [7] and 3.16 µM in assay [5].

With `CN(C)C(=O)c1ccc(-c2ccc3nc(N)sc3c2)cn1`, the 50% inhibitory concentration (IC50) in assay [1] is 63.1 µM; in assay [2], > 100 µM; in assay [6], 79.4 µM; in assay [3] it was 20 µM; in assay [4], 39.8 µM; in assay [7] it was 39.8 µM. Besides, the IC50 in assay [5] is 1.26 µM.

For `CC(C)Oc1cncc(-c2ccc3nc(N)sc3c2)c1`, the IC50 is 1.26 µM in assay [1]; 31.6 µM in assay [2]; 1.26 µM in assay [6]; 0.251 µM in assay [3]; 1 µM in assay [4]; 0.501 µM in assay [7]. For the same compound, in assay [5], the IC50 is 1 µM.

Regarding `CS(=O)(=O)c1cncc(-c2ccc3nc(N)sc3c2)c1`, the IC50 in assay [1] was 0.316 µM; in assay [2], > 100 µM; in assay [6], 0.251 µM; in assay [3] it was 0.126 µM; in assay [4], 3.98 µM; in assay [7], 0.251 µM. Also, in assay [5], the half-inhibitory concentration (IC50) was 0.398 µM.

`Nc1nc2ccc(-c3ccccn3)cc2s1`: the 50% inhibitory concentration (IC50) in assay [1] was 79.4 µM; in assay [2], > 100 µM; in assay [3], 12.6 µM; in assay [4] it was 2.51 µM; in assay [7], 10 µM; in assay [5] it was 10 µM.

`Nc1nc2ccc(-c3cccnc3)cc2s1`: the IC50 in assay [1] is 1.26 µM; in assay [2] it was 31.6 µM; in assay [4], 0.631 µM; in assay [7] it was 2 µM; in assay [5], 1.58 µM.

As for `Nc1nc2ccc(-c3ncccn3)cc2s1`, the IC50 in assay [1] was 50.1 µM; in assay [2], 31.6 µM; in assay [3], 31.6 µM; in assay [4] it was 6.31 µM; in assay [7], > 100 µM; in assay [5], 15.8 µM.

Regarding `Nc1nc2ccc(-c3cnccn3)cc2s1`, the half-inhibitory concentration (IC50) was 7.94 µM in assay [1]; > 100 µM in assay [2]; 6.31 µM in assay [6]; 3.98 µM in assay [3]; 6.31 µM in assay [4]; 2 µM in assay [7]. In addition, the IC50 in assay [5] is 7.94 µM.

Regarding `Nc1nc2ccc(-c3ccc(=O)[nH]c3)cc2s1`, the IC50 in assay [1] is 31.6 µM; in assay [2], 39.8 µM; in assay [6], 50.1 µM; in assay [3] it was 10 µM; in assay [4] it was 3.98 µM; in assay [7], 25.1 µM. The IC50 in assay [5] was 3.16 µM.

Consider `Nc1nc2ccc(-c3cc[nH]c(=O)c3)cc2s1`, for which the half-inhibitory concentration (IC50) in assay [1] was 10 µM; in assay [2], 15.8 µM; in assay [6] it was 6.31 µM; in assay [3], 1.26 µM; in assay [4], 0.631 µM; in assay [7], 3.98 µM. Besides, the 50% inhibitory concentration (IC50) in assay [5] was 0.316 µM.

For the compound `Cn1ccc(-c2ccc3nc(N)sc3c2)n1`, the IC50 in assay [1] was 12.6 µM; in assay [2] it was 63.1 µM; in assay [6], 15.8 µM; in assay [3], 2.51 µM; in assay [4], 1.26 µM; in assay [7], 6.31 µM. In assay [5], the IC50 was 2.51 µM.

With `Cn1nccc1-c1ccc2nc(N)sc2c1`, the IC50 in assay [1] is 25.1 µM; in assay [2], > 100 µM; in assay [6], 31.6 µM; in assay [3], 2.51 µM; in assay [4], 1 µM; in assay [7], 12.6 µM. For the same compound, the concentration for half-maximal inhibition (IC50) in assay [5] is 12.6 µM.

On to `Cn1cc(-c2ccc3nc(N)sc3c2)cn1`, for which the IC50 in assay [1] is 7.94 µM; in assay [2], > 100 µM; in assay [6], 15.8 µM; in assay [3] it was 2.51 µM; in assay [4] it was 1.26 µM; in assay [7] it was 7.94 µM. The IC50 in assay [5] was 2.51 µM.

As for `CCn1cc(-c2ccc3nc(N)sc3c2)cn1`, the IC50 in assay [1] is 20 µM; in assay [2] it was > 100 µM; in assay [6], 31.6 µM; in assay [3] it was 3.16 µM; in assay [4] it was 1.58 µM; in assay [7] it was 12.6 µM. In addition, the IC50 in assay [5] is 3.16 µM.

Consider `CCCn1cc(-c2ccc3nc(N)sc3c2)cn1`, for which the half-inhibitory concentration (IC50) was 12.6 µM in assay [1]; 25.1 µM in assay [2]; 12.6 µM in assay [6]; 1.58 µM in assay [3]; 2 µM in assay [4]; 12.6 µM in assay [7]. In assay [5], the IC50 was 1.58 µM.

Turning to `CC(C)n1cc(-c2ccc3nc(N)sc3c2)cn1`, the IC50 in assay [1] is 20 µM; in assay [2], 63.1 µM; in assay [3], 3.98 µM; in assay [4], 2.51 µM; in assay [7], 15.8 µM; in assay [5], 25.1 µM.

For the compound `Nc1nc2ccc(-c3cnn(C4CC4)c3)cc2s1`, the half-maximal inhibitory concentration (IC50) is 3.98 µM in assay [1]; > 100 µM in assay [2]; 10 µM in assay [6]; 1 µM in assay [3]; 2 µM in assay [4]; 10 µM in assay [7]. In assay [5], the half-inhibitory concentration (IC50) was 7.94 µM.

Turning to `Nc1nc2ccc(-c3cnn(CC4CC4)c3)cc2s1`, the IC50 in assay [1] is 20 µM; in assay [6], 15.8 µM; in assay [3], 1.26 µM; in assay [4], 2 µM; in assay [7] it was 12.6 µM; in assay [5], 0.631 µM.

As to `Nc1nc2ccc(-c3cnn(Cc4ccccc4)c3)cc2s1`, the IC50 in assay [1] is 20 µM; in assay [2], > 100 µM; in assay [6], 25.1 µM; in assay [3] it was 2 µM; in assay [4] it was 0.794 µM; in assay [7], 7.94 µM. Further, the concentration for half-maximal inhibition (IC50) in assay [5] was 0.158 µM.

On to `Cn1ccc(-c2ccc3nc(N)sc3c2)cc1=O`, for which the IC50 in assay [1] was 5.01 µM; in assay [2] it was > 100 µM; in assay [6] it was 63.1 µM; in assay [4], 0.316 µM; in assay [7] it was 2.51 µM; in assay [5], 0.501 µM.

For the compound `CCn1ccc(-c2ccc3nc(N)sc3c2)cc1=O`, the concentration for half-maximal inhibition (IC50) in assay [1] was 10 µM; in assay [2], > 100 µM; in assay [6], 50.1 µM; in assay [3] it was 3.16 µM; in assay [4] it was 0.316 µM; in assay [7], 6.31 µM. Also, in assay [5], the IC50 is 0.316 µM.

For the compound `COCCOn1ccc(-c2ccc3nc(N)sc3c2)cc1=O`, the concentration for half-maximal inhibition (IC50) is > 200 µM in assay [1]; > 100 µM in assay [2]; > 200 µM in assay [6]; 10 µM in assay [3]; 10 µM in assay [4]; 25.1 µM in assay [7]. Moreover, in assay [5], the IC50 is 0.631 µM.

As to `Nc1nc2ccc(-c3ccccc3)cc2s1`, the half-inhibitory concentration (IC50) in assay [2] is > 100 µM; in assay [4] it was 0.501 µM; in assay [7], 12.6 µM; in assay [5] it was 2.51 µM.
